The test system of one test is DBTRG-05MG. Nature of the test: Cell cycle analysis (PI staining, FACScan) in GBM cells. The class given is cell-based, human. The following applies: 400 μM BP. The protocol:
Brain tumor cell lines DBTRG-05MG and G5T/VGH were cultured in the growth medium with a diluent. For each test and control, DMSO was added, and the content is less than 0.02% (v/v). For the AS-C and BP treatment, 70 μg/ml of AS-C and 400 μM of BP were added, respectively. All were cultured for 48 hours. The analysis of cell cycle distribution was performed by DNA staining with propidium iodide (PI). Briefly, 2×10^6 adherent cells were detached by trypsinization. The detached cells and the floating dead cells were centrifuged and washed twice with 10 ml of cold 1×PBS (Life Technologies, Inc.). Supernatant was aspirated, cells were re-suspended in 0.8 ml of 1×PBS, and then 200 μl of PI solution (50 μg/ml PI+0.05 mg/ml RNase A; Sigma Chemical Co.) was added, and the cells were refrigerated at 4° C. overnight. The cells were incubated while protected from light at room temperature for at least 2 h before DNA analysis. After staining, DNA was detected and quantified on 20,000 total cells using a FACScan (Becton Dickinson Immunocytometry Systems, San Jose, Calif., USA) and CellQuest analysis software. The G0/G1 phases were gated in M1 (×2); G2/M phases were gated in M2 (×2); the total cells were gated in M3; S phase was M3−(M1(×2)+M2(×2)); Sub G1 phase (apoptosis cells) was gated in M4.

The next test relates to DBTRG-05MG cells. Nature of the test: Western blot analysis of apoptosis molecules. It is filed as cell-based, human. The following applies: BP 400 μM. As for the experimental part:
DBTRG-05MG cells (human GBM cells) were treated with AS-C (70 μg/ml) for 0, 6, 12, 24 and 48 hours. In another test, DBTRG-05MG cells were treated with BP (400 μM) for 0, 1.5, 3, 6, 12, 24 and 48 hours. The cell pellets were re-suspended in lysis buffer ([…] Tris-HCl, pH 7.5, 1 mM EGTA, 0.5% CHAPS, 10% (v/v) glycerol, 5 mM β-2-mercaptoethanol and 0.1 mM phenylmethylsulfonyl fluoride) and incubated on ice for 30 min, and then centrifuged at 13000×rpm at 4° C. for 20 minutes. The protein concentration of whole cell lysates was measured with BCA protein assay kit (Pierce, Rockford, Ill.) following the manufacturer's instructions. The cell lysates (20 μg/lane) were electrophoresed on 10-12% SDS-PAGE (Bio-Rad, Hercules, Calif.). Proteins were transferred to polyvinyldenefluoride (PVDF) membranes (Amersham Lifesciences, Piscataway, N.J.). The membranes were masked for 1 hour at room temperature with 5% skim milk as the blocking agent, and incubated with the respective antibodies of Fas (FL-335), Fas-L (C-178), caspase 3 (H-277), caspase 8 (H-134), caspase 9 (H-170), Bax (B-9), p16 (F-12), p21 (F-5), p53 (DO-1; 1/100 dilution) (Santa Cruz Biotechnology Inc., CA, U.S.A.), phospho-p53 (Ser15; 1/2000 dilution) and phospho-Rb (Ser795; 1/2000 dilution) (Cell Signaling Technology, MA, USA) for 2 hours at room temperature. Antibody recognition was detected, by incubating the membranes with the respective anti-mouse, anti-rabbit, anti-goat IgG secondary antibodies (1/1000 dilution; Santa Cruz Biotechnology Inc., CA, U.S.A.) conjugated to horseradish peroxidase, for 1 hour at room temperature, and visualized with the ECL Plus chemiluminescence system (Amersham, Arlington Heights, Ill.). For system control, SDS-PAGE gels, for every test sample, were prepared in duplicate, containing the same amount of protein; and the control gel was stained with coomassie blue. The other gel was used for Western Blot analysis. The intensity of the bands was analyzed by densitometry with a GS-800 Calibrated Imaging Densitometer (Quantity One 4.0.3 software; Bio-Rad). […] In addition, the activation of the death receptor-induced apoptosis-related caspases-8 was monitored.
A general note: Immunoblotting shows a protein as a band on a membrane.

We go through 1 compound from patent publication US7455861B2, “Angelicae sinensis extracts useful for treatment of cancers” (priority 2004, dated 2008).

For the compound `CCCC=C1OC(=O)c2ccccc21` [BP, n-Butylidenephthalide], in the test on DBTRG-05MG, the “cell cycle accumulation at G0/G1 phase” value was greater than 90%. In addition, in the test with DBTRG-05MG cells, the Caspase-3 result was “increase”; the “cdk2, cdk4, cdk6 cyclins D1 and cycline E” value is “decrease”; the “expression of the Fas Ligand” value is given as “suppressing”; the “procaspase 8” value is on record as “declined”. Also, in the test with DBTRG-05MG cells, the procaspase-3 entry is given as “declined” and the procaspase-9 result is listed as “declined”. In the test with DBTRG-05MG cells (1.5 h), the “expression of Fas, increase” value is 5.2 times and the p53 phosphorylation increase worked out at 5.2 times. Besides, in the test with DBTRG-05MG cells (48 h), the AIF expression increase came out at 2.4 times, the Bax expression increase is 16 times, the Rb phosphorylation decrease was found to be 0.2 times and the “activated caspase-9” value came to 25.8 times. Further, in the test with DBTRG-05MG cells (48 h), the “activation of caspase 8” value was determined as 137.9; the “expression of Fas, increase” value is 27.9 times; the p16 expression increase was 3.1 times; the p21 expression increase is on record as 2.3 times. In the test on DBTRG-05MG cells (48 h), the p53 expression increase amounted to 1.4 times and the p53 phosphorylation increase was 9.2 times.
